Where a SMILES comes first, the peptide text is derived from it. Where no end group is shown, it is not given here. The star is where a group is joined. 5FAM = O=C1OC2(c3ccc(O)cc3Oc3cc(O)ccc32)c2ccc(C(=O)*)cc21; Palmitoyl = CCCCCCCCCCCCCCCC(=O)*
Columns and labels:
U87 cells [1] = assay: Uptake of CoPoP liposomes bound to his-tagged cell penetrating peptides; type: cell-based; settings: 1 hour incubation; [2:5:30:63] [PoP:CoP:CHOL:DMPC]
Source text: In this example, CoPoP liposomes were targeted to cells via his-tagged cell penetrating peptides. The following his-tagged cell penetrating peptides were obtained: […] (SEQ ID NO:13) (TAT peptide); […] (SEQ ID NO:14) (R8 peptide); […] (SEQ ID NO:15) (PEN peptide).

[2] = system: murine RAW 264.7 macrophage cells; assay: DY-490-OspA uptake by macrophage cells; type: cell-based; settings: 2 hr incubation
Procedure: FIG. 24. Assessing epitope availability and stability of antigen-functionalized nanoliposomes. (A) Stability of nanoliposome-antigen particles in 20% (v/v) human serum based on fluorescence quenching assay. (B) Immunoprecipitation of OspA-bound liposomes by OspA-specific monoclonal antibody LA-2. (C) DY-490-OspA uptake by murine RAW 264.7 macrophage cells following 2 hr incubation with indicated samples. Cytochalasin B was supplemented to medium 1 hr prior to incubation. Error bars represent standard deviations for n=3 experiments.
Practical utility of liposomes as antigen delivery vesicles is attributed from its enhanced uptake by antigen presenting cells. […] The macrophage selective uptake of PoP/PHAD liposomes in the mixed form further implicates that physical association of antigen to liposomes may be necessary for liposomal adjuvanticity. Co-delivery of surface-exposed antigen and immunostimulant to immune cells is an important facet of the CoPoP/PHAD liposome. Cellular uptake mechanism via phagocytosis is supported by the diminished uptake for both antigen and liposome in the presence of cytochalasin B.

CoPoP liposomes = assay: Effect of His-tag length on peptide binding to CoPoP liposomes; settings: FAM-labeled peptides with varying His-tag length
Procedure: 1 μg of fluorescent reporter protein was incubated with 20 μg of liposomes in 200 μL PBS in a 96 well plate. Fluorescence in the FRET channel (ex: 430 nm, em: 525 nm) was measured periodically with a fluorescence microplate reader (Tecan Infinite II). Data were normalized to the FRET signal in the protein without addition of liposomes. EMSA experiments were performed with 2.5 μg protein incubated with 50 μg liposomes followed by electrophoresis in a 0.75% agarose gel with 50 V applied for 90 minutes and imaging with an IVIS Lumina II system with the indicated excitation and emission filters. For serum stability test, […] in 40u l PBS. After […], 40u l FBS was added and incubated for another 8 h (hours). For imidazole displacement experiments, 1 μg of reporter protein was bound to 20 μg liposomes in PBS. Imidazole was then titrated and binding was assessed with fluorescence. For serum stability, 1 μg of reporter protein was bound to 20 μg liposomes in 100 μL PBS and then an equal volume of fetal bovine serum (VWR #82013-602) was added and binding was monitored with fluorescence. Peptide binding was assessed with RGD-His FAM fluorophore quenching following incubation of 500 ng peptide with 20 μg liposomes.
The effect of His-tag length on peptide binding to CoPoP liposome was examined. A series of N-terminus FAM-labeled peptides was synthesized with varying lengths of His-tag attached to the C-terminus.

his-tagged OspA = molecular target: T1, his-tagged OspA (Borreliella burgdorferi, UniProt P0CL66); assay: OspA binding to CoPoP/PHAD liposomes (native PAGE, microBCA); parameters: species or system Borrelia burgdorferi; settings: microBCA assay of supernatant after high speed centrifugation
T1 construct: made in house; host or cells: E. coli
T1 sequence (P0CL66 17-273): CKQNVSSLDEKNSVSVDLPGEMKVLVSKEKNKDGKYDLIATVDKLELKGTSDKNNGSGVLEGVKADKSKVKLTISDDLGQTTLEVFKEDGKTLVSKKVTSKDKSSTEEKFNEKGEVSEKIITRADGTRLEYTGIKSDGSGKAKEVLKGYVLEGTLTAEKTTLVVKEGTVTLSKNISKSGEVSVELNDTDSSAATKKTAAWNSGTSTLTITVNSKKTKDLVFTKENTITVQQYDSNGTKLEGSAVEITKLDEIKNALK
Procedure: FIG. 23. […] (D) Hydrodynamic diameter and polydispersity index of liposomes measured using dynamic light scattering. […] Acquisitions were made 3 hr after incubation of liposomes with protein. Error bars represent standard deviations for n=3 measurements.
Spontaneous formation of the proteoliposomes occurs via insertion of the histidine tag into the hydrophobic bilayer and subsequent coordination of the imidazole moiety to the metal center. Binding conditions for were evaluated using native electrophoresis, which allows physical separation of liposome-bound and free proteins due to the limiting pore size of the acrylamide gel. Observed optimum binding mass ratio of 4:1 of PHAD:OspA (FIG. 23A) is consistent with previous studies using the malaria antigen, Pfs25. […] It can be deduced that the initial phase of binding occurred at a fast rate based from the relative band intensities for time points, 0 and 15 min. At the particleization conditions, specific binding is estimated to be about 80% based from microBCA assay of the supernatant obtained from high speed centrifugation (FIG. 23C).

U87 glioblastoma cells = assay: Targeted uptake of sulforhodamine B-loaded liposomes; type: cell-based; settings: excess free RGD peptide
Procedure: U-87 and MCF-7 cell lines were obtained from ATCC and cultured according to vendor protocol. 2×10^4 cells were seeded overnight in 96-well-plate wells. 500 ng RGD-His peptide was bound with 20 μg of sulforhodamine B loaded liposomes and liposomes were incubated with cells for 2 h. Media was removed, cells were washed with PBS 3 times and then cells and liposomes were lysed with a 1% Triton X-100 solution. Liposomal uptake was assessed by measuring the fluorescence of sulforhodamine B.
For confocal imaging, 10^4 cells were seeded overnight in a Nunc chamber slide (Nunc #155411) in DMEM with 10% fetal bovine serum (FBS). 20 μg of liposomes were added to the serum containing media and incubated for 2 h. Media was removed and the cells were washed with PBS 3 times. Fresh media was added and cells were imaged with microscopy using a Zeiss LSM 710 confocal fluorescence microscope. Gold imaging was carried out in the same way but 633 nm light was used for both excitation and emission for back scatter imaging. […]
Next, RGD-decorated liposomes were assessed whether they could bind to their molecular targets with the established cell-line pair of U87 glioblastoma cells (RGD-binding) and MCF7 breast cancer cells (RGD non-binding). […] Liposomal uptake was assessed by examining the fluorescence in the cells following washing and lysis (to remove any effects of cargo self-quenching). […]

U87 cells [3] = assay: Uptake of coated gold nanospheres (confocal reflectance/backscatter microscopy); type: cell-based; settings: free RGD
Procedure: For gold coating, 60 nm citrate-stabilized gold nanospheres (Ted Pella #15709-20) were used to hydrate a 1 mg lipid film composed of 45 mol % distearoyl phosphocholine (Avanti #850365P), 45 mol % distearoyl phosphoglycerol (Avanti #840465X) and 10 mol % PoP. Following brief vortexing and sonication, the samples were repeatedly centrifuged at 1500 relative centrifugal force (rcf) for 15 min. The supernatant was discarded and the pellet was resuspended and re-centrifuged 2 more times. PoP gold was resuspended in water for further analysis.
For confocal imaging, 10^4 cells were seeded overnight in a Nunc chamber slide (Nunc #155411) in DMEM with 10% fetal bovine serum (FBS). 20 μg of liposomes were added to the serum containing media and incubated for 2 h. Media was removed and the cells were washed with PBS 3 times. Fresh media was added and cells were imaged with microscopy using a Zeiss LSM 710 confocal fluorescence microscope. Gold imaging was carried out in the same way but 633 nm light was used for both excitation and emission for back scatter imaging. After peptide binding, gold was centrifuged to remove any unbound RGD peptide.
Liposomes represent only a subset of all the types of nanomaterials used in biomedical applications. CoPoP was assessed as a generalized surface coating with selective adhesion for His-tags. […]

[4] = type: physicochemical; settings: not told
Procedure: PoP-liposomes were formulated at a 1 mg scale. After dissolving lipids in chloroform in a test tube, the solvent was evaporated and the film was further dried under vacuum overnight. Lipids were rehydrated with 1 mL of phosphate buffered saline (PBS), sonicated, subjected to 10 freeze-thaw cycles and then extruded through 100 nm polycarbonate membranes (VWR #28157-790) with a handheld extruder (Avanti #610000). For protein and peptide binding analysis, liposomes were formed with 10 mol % PoP along with 85 mol % DOPC (Avanti #850375P), and 5 mol % PEG-lipid (Avanti #880120P). […] Liposomes incorporating free Co-porphyrin included 10 molar % Co-pyropheophorbide with 85 mol % DOPC and 5 mol % PEG-lipid. Co-NTA-liposome was prepared using liposomes containing 10 mol % dioleoyl-gycero-NTA (Avanti #790528P). Liposomes were incubated with 20 mg/mL cobalt (II) chloride for 2 hours and then dialized in PBS. Sulforhodamine B loading liposomes contained 10 mol % PoP, 35 mol % cholesterol (Avanti #700000P), 55 mol % DOPC and PEG-lipid as indicated. […] For bilayer integrity and quantitative cell binding studies, 50 mM dye was used, whereas microscopy studies used 10 mM dye.
Given the binding efficacy of the His-tagged peptide to liposomes, bilayer integrity was assessed to determine whether peptide binding induces membrane destabilization. […]

HHHHHHHRRRRRRRR (SEQ ID NO:14) (cell penetrating peptide) [R8 peptide]
binding and uptake of peptide-bound CoPoP liposomes (U87 cells [1]): could bind and get uptaken

OspA: his-tagged OspA based on the B31 strain protein sequence without the lipid tail, free non-adjuvanted
antigen uptake [2]: Minimal uptake

5-FAM-KKGGGGHHHHHH (SEQ ID NO: 8) (5FAM-KKGGGGHHHHHH) [6-His]
binding t1/2 (CoPoP liposomes): less than one hour

HHHHHHHGRKKRRQRRRPPQ (SEQ ID NO:13) (cell penetrating peptide) [TAT peptide]
binding and uptake of peptide-bound CoPoP liposomes (U87 cells [1]): could bind and get uptaken

5-FAM-KKGGGGHHHHHHHHHH (SEQ ID NO: 10) (5FAM-KKGGGGHHHHHHHHHH) [10-His]
binding t1/2 (CoPoP liposomes): 0.333 h

5-FAM-KKGGGGHH (SEQ ID NO: 6) (5FAM-KKGGGGHH) [2-His]
binding t1/2 (CoPoP liposomes): ~10 h

HHHHHHHRQIKIWFQNRRMKWKK (SEQ ID NO:15) (cell penetrating peptide) [PEN peptide]
binding and uptake of peptide-bound CoPoP liposomes (U87 cells [1]): could bind and get uptaken

5-FAM-KKGGGG (SEQ ID NO: 5) (5FAM-KKGGGG) [0-His]
binding t1/2 (CoPoP liposomes): no peptide binding was observed

lysozyme: a non-histidine tagged protein
specific binding (his-tagged OspA): failed to bind

GRGDSPK (SEQ ID NO: 2) [Free RGD]
inhibition of targeted liposome binding (U87 glioblastoma cells): Binding could be inhibited | inhibition of gold nanoparticle binding (U87 cells [3]): inhibited the binding

CCCCCCCCCCCCCCCC(=O)NCCCC[C@H](NC(=O)CNC(=O)[C@H](CCCCN)NC(=O)[C@H](C)NC(=O)CNC(=O)[C@H](C)NC(=O)CNC(=O)[C@H](CCCCN)NC(=O)[C@@H]1CCCN1C(=O)[C@H](CO)NC(=O)[C@H](CC(=O)O)NC(=O)CNC(=O)[C@H](CCCNC(=N)N)NC(=O)CNC(=O)c1ccc2c(c1)C(=O)OC21c2ccc(O)cc2Oc2cc(O)ccc21)C(=O)O [RGD-palm] (5FAM-GRGDSPKGAGAKGK(Palmitoyl)-OH; C-terminus assumed)
membrane permeabilization by lipopeptide [4]: permeabilization of cargo-loaded liposomes
